The conditions of series [1]: cited from earlier work.
For a further series, the system named is Caco-2. Set-up: method as in earlier work. The following applies: enzalutamide PBPK model input; cited from earlier work.
In series [2] the test system is CYP3A4. The following applies: cited from earlier work.
The conditions of series [3]: cited from earlier work. This is another data set of the same source.
Series [4] addresses T1, CYP3A4 (Homo sapiens, UniProt P08684). The note with it: cited from earlier work.
Series [5] in a line: Solubility of ipatasertib. In kind it is physicochemical. The following applies: across the pH range of 1.1–7.0. The text has this: (§1) The physiochemical and ADME parameters used for the development of the initial PBPK model are summarized Table S1. […] The volume of distribution at steady state (Vss) was obtained from the clinical absolute bioavailability study (ClinicalTrials.gov Identifier: NCT02390492). A tissue to plasma partition coefficient (Kp) scalar was applied to match the predicted Vss (predicted with in Simcyp using Method 3, Rodgers et al. + ion membrane permeability) to the observed value. The IV clearance determined in the clinical absolute bioavailability study was used (ClinicalTrials.gov Identifier: NCT02390492). […] The CYP3A4 inhibition parameters for competitive inhibition and TDI determined using in vitro assays (Data on file) were incorporated into the model.

Series [6] in a line: Physicochemical parameters (LogP, pKa, compound type; in-house data).
From the text: as §1

A short description of series [7]: Blood-to-plasma partition ratio and fraction unbound in plasma. In kind it is in vitro ADME. The note with it: mean at concentration from 0.1 to 40 µM, data on file, read-out: fu,plasma.
The nature of the next series: MDCK permeability. The note with it: dog, MDCK.
From the text: as §1

For series [8], the system named is MDCK (Madin-Darby Canine Kidney). Description: MDCK permeability.
From the text: as §1

The target of series [9] is T1, CYP3A4.
From the text: as §1
(§2) The age range of 37–76 and the proportion of females of 0.69 were used in the simulation.

A short description of series [10]: Biliary excretion of unchanged ipatasertib. In kind it is in vivo. The note with it: rats and monkeys dosed with 10 mg/kg and 5 mg/kg. From the text: (§3) This is due to the difficulty in differentiating between the inhibition and induction from the clinical data and that the PBPK model parameters were optimized to represent a net inhibition effect.
The target of the next series is P-glycoprotein (P-gp) (Homo sapiens, UniProt P08183). Description: In vitro P-glycoprotein substrate assessment. In kind it is in vitro ADME.
From the text: as §3

In series [11] the test system is CYP3A4. Put plainly: In vitro CYP3A4 induction. In kind it is in vitro ADME.
From the text: as §3

For series [12] the following is noted: male, human, in vivo, iv.
For series [13] the following is noted: cited from earlier work; for Observed AUC0-∞ / Observed AUC0-24: geometric mean (CV%); for Observed AUC0-24: Steady state.
The conditions of series [14]: cited from earlier work. The source holds these as a separate data set.
The nature of another series: clinical. The note with it: human, in vivo, po, 200 mg.
Series [15] has as its target T1, CYP3A4. The following applies: ipatasertib 100 mg single oral dose with and without itraconazole 200 mg QD, cited from earlier work.
The nature of series [16]: Human mass balance and absolute bioavailability study (NCT02390492).
Series [17] addresses T1, CYP3A4. Put plainly: Clinical study: ipatasertib 300 mg QD with palbociclib (NCT04060862). The note with it: in vivo.
For series [18], the target named is T1, CYP3A4. Put plainly: PBPK simulation: midazolam with ipatasertib 600 mg QD. As for the experimental part:
as §2
Therefore, sensitivity analyses of inhibitory parameters, where only one parameter (Ki or Kinact) varied at a time, were performed for all three models described above.

The target of series [19] is T1, CYP3A4. The note with it: cited from earlier work; for AUC ratio Observation: midazolam AUC0–∞ with/without ipatasertib 600 mg QD; for AUC ratio Observation / Cmax ratio Observation: geometric mean ratio (90% CI); for Cmax ratio Observation: midazolam Cmax with/without ipatasertib 600 mg QD.
The conditions of series [20]: palbociclib PBPK model input; cited from earlier work.
Series [21] addresses T1, CYP3A4. Put plainly: clinical. The note with it: female, in vivo, 125 mg.
The mark [22] stands for this setting: enzalutamide 160 mg QD with ipatasertib, clinical observation, geometric mean (CV%).

Results on seven compounds are retold here after publication PMC9054915 (Cancer Chemotherapy and Pharmacology, 2022).

The structures appear in SMILES notation. Like-named read-outs stand apart in the source and are kept apart here.

T1 sequence (P08684 whole entry): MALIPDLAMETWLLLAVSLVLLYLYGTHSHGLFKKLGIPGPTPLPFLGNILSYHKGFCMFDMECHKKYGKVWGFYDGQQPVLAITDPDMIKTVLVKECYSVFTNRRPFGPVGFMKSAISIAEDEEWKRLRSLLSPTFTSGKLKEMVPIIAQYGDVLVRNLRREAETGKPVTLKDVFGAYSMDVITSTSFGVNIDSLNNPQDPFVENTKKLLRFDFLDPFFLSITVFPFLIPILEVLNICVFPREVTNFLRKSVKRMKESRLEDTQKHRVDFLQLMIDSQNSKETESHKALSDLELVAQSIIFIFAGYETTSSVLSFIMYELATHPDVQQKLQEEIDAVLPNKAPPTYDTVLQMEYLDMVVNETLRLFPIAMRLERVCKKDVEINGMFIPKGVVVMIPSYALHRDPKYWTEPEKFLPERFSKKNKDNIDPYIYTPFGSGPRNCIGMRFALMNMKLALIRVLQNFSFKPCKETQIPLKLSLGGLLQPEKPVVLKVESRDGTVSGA
Sequence of P-glycoprotein (P-gp) (P08183 whole entry): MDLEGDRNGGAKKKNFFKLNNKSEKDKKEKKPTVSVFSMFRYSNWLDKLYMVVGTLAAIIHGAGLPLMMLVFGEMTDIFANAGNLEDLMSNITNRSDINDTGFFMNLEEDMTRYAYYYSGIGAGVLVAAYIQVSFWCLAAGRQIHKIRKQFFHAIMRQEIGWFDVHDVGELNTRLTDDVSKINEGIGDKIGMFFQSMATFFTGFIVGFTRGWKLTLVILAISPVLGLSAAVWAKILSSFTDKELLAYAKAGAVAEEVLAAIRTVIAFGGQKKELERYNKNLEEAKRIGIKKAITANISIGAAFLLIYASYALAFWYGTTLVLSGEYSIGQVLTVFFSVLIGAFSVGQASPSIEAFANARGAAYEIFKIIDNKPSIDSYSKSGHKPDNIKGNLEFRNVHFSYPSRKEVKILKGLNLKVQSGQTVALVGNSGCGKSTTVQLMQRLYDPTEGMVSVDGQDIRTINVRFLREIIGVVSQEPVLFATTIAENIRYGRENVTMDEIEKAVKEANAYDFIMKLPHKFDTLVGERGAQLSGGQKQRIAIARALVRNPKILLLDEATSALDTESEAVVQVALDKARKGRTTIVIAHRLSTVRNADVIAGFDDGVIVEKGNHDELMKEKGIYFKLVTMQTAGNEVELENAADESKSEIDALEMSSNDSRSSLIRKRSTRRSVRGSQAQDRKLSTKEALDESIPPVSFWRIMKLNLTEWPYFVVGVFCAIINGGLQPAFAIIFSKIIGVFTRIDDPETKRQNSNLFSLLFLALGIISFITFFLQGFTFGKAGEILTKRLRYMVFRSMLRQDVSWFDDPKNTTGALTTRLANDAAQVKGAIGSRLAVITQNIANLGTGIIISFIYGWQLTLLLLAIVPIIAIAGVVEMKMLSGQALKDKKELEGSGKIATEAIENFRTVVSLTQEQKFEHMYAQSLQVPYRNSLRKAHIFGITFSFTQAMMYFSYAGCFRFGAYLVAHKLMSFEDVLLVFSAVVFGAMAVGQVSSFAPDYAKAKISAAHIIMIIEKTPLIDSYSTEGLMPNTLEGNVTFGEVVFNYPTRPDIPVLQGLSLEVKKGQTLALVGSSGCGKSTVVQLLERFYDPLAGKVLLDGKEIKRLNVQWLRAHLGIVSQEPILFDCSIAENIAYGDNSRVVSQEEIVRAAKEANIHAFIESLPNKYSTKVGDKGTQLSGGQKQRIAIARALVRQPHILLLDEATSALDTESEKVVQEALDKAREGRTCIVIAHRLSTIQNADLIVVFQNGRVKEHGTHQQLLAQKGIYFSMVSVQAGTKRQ

Regarding `CNC(=O)c1ccc(N2C(=S)N(c3ccc(C#N)c(C(F)(F)F)c3)C(=O)C2(C)C)cc1F` [Enzalutamide], the “fu, plasma” value in series [1] (enzalutamide PBPK model input) was 0.024. Besides, in the series on Caco-2, the Caco-2 permeability is 31 10^-6 cm/s. In the series on CYP3A4 [2] (enzalutamide PBPK model input), the “Ind max (CYP3A4 induction)” value is listed as 8. Moreover, the EC50 in the series with CYP3A4 [2] (enzalutamide PBPK model input, read-out: Ind C50 (CYP3A4 induction)) is 2.5 µM. The Ki with CYP3A4 [2] (enzalutamide PBPK model input, read-out: Ki (CYP3A4 competitive inhibition)) is 42 µM. For the same compound, in series [3] (enzalutamide, in vivo clearance), the CLpo is 0.54 L/h. In addition, at CYP3A4 [4] (setting [22]), the “Observed AUCss” value is 341 (25%) µg*hr/ml and the “Observed Cmax” value is reported as 17 (22%) µg/ml.
Regarding `CC(C)NC[C@@H](C(=O)N1CCN(c2ncnc3c2[C@H](C)C[C@H]3O)CC1)c1ccc(Cl)cc1` [Ipatasertib], the solubility in series [5] is greater than 10000 µg/mL. For the same compound, the Compound type result in series [6] is “Diprotic base”. For the same compound, the logP in series [6] is 3. In addition, the pKa in series [6] (read-out: pKa1) came out at 9; in series [6] (read-out: pKa2), 4.9. Besides, the fraction unbound in series [7] amounted to 0.63. In the series “MDCK permeability”, this compound yielded a Papp of 3.55 ×10⁻⁶ cm/s. In series [8], the “permeability (in words)” value is recorded as “moderate permeability”. Further, on CYP3A4 [9], the CYP3A4 substrate/inhibitor status entry was “a substrate and a competitive and time-dependent inhibitor (TDI) of CYP3A4”. In addition, the “Kapp (CYP3A4 time-dependent inhibition)” value on CYP3A4 [9] came to 9.66 µM. Further, the “unchanged drug found in bile” value in [10] is 2.9–5.8%. The P-gp substrate status result at P-glycoprotein (P-gp) is “substrate of P-glycoprotein (P-gp)”. For the same compound, the “CYP3A4 induction in vitro” value in the series on CYP3A4 [11] is “weak CYP3A4 inducer in vitro”. In series [12], the CLiv was 100 L/h. Moreover, the “dose proportionality of exposure” value in series [13] (200 to 800 mg, single dose or multiple doses) is reported as “approximately dose-proportional”; in series [13] (low doses of 25–50 mg), “more than dose-proportional increase in exposures”. Also, the “Observed AUC0-∞” value in series [13] (Day 1, 25 mg oral (n=3)) is reported as 34.0 (107%) ng*hr/ml; in series [13] (Day 1, 50 mg oral (n=3)), 84.6 (50.1%) ng*hr/ml; in series [13] (Day 1, 100 mg oral (n=3)), 365 (21.5%) ng*hr/ml; in [13] (Day 1, 200 mg oral (n=3)), 999 (21.2%) ng*hr/ml; in series [13] (Day 1, 400 mg oral (n=3)) it was 2230 (14.1%) ng*hr/ml; in [13] (Day 1, 600 mg oral (n=7)), 3460 (36.4%) ng*hr/ml. For the same compound, the “Observed AUC0-∞” value in series [13] (Day 1, 800 mg oral (n=7)) is on record as 4100 (68.6%) ng*hr/ml. Also, the “Observed AUC0-24” value in series [13] (25 mg (n=3)) is reported as 88.3 (77.8%) ng*hr/ml; in series [13] (50 mg (n=3)), 171 (11%) ng*hr/ml; in [13] (200 mg (n=3)), 1770 (14.6%) ng*hr/ml; in series [13] (400 mg (n=3)), 3210 (22.3%) ng*hr/ml; in series [13] (600 mg (n=7)) it was 4450 (43.8%) ng*hr/ml; in series [13] (800 mg (n=7)) it was 6670 (66.1%) ng*hr/ml. Moreover, the “effect of food on exposures” value in series [14] was “Food does not affect exposures”. In addition, the CL renal in the series “clinical” was 322 mL/min. Besides, the “AUC Observation” value was 327 (26.4%) ng* h/ml at CYP3A4 [15] (ipatasertib AUC0–∞, geometric mean (CV%)); 2170 (53.8%) ng* h/ml at CYP3A4 [4] (ipatasertib AUC0–24 h, ipatasertib 400 mg QD with and without enzalutamide 160 mg QD, geometric mean (CV%)). In addition, the “Cmax Observation” value on CYP3A4 [15] (ipatasertib Cmax, geometric mean (CV%)) is recorded as 44.9 (35.9%) ng/ml; on CYP3A4 [4] (ipatasertib Cmax, ipatasertib 400 mg QD with and without enzalutamide 160 mg QD, patients with prostate cancer, geometric mean (CV%)) it was 284 (66.5%) ng/ml. In addition, the “Tmax Observation” value is recorded as 1.07 (0.50–3.03) h on CYP3A4 [15] (ipatasertib Tmax, median (range)); 1.85 (0.63–4.00) h on CYP3A4 [4] (ipatasertib Tmax, ipatasertib 400 mg QD with and without enzalutamide 160 mg QD, median (range)). In addition, at CYP3A4 [4] (in the presence of enzalutamide, patients with prostate cancer), the “observed decrease in ipatasertib Cmax” value was roughly 53%. The same compound yielded a Vd in series [16] (human, in vivo, intravenous, 0.08 mg) of 39.1 L/kg. In series [16] (human, in vivo, oral, 200 mg), this compound displayed a bioavailability of 34%. Besides, the “unchanged drug eliminated in urine” value in series [16] (single 200 mg oral dose) was roughly 8%. On CYP3A4 [17], this compound returned an AUC of 2510 ng·h/mL. In addition, the concentration on CYP3A4 [17] peaked (Cmax) at 314 ng/mL. For the same compound, at CYP3A4 [17], the Tmax is 1.5 h.
In turn, `Cc1ncc2n1-c1ccc(Cl)cc1C(c1ccccc1F)=NC2` [Midazolam] had an apparent permeability coefficient (Papp) in the series “MDCK permeability” of 18.8 ×10⁻⁶ cm/s. In addition, the “AUC P/O” value at CYP3A4 [18] (predicted/observed midazolam AUC0–∞, midazolam 2 mg with and without ipatasertib 600 mg QD) is given as 0.59. Moreover, on CYP3A4 [18] (predicted/observed midazolam AUC ratio, ipatasertib 600 mg QD), the “AUC ratio P/O” value is reported as 1.00. Besides, the “Cmax ratio P/O” value at CYP3A4 [18] (predicted/observed midazolam Cmax ratio, ipatasertib 600 mg QD) was 1.33. Further, on CYP3A4 [19], the “AUC ratio Observation” value was 2.22 (1.57–3.12) and the “Cmax ratio Observation” value is recorded as 1.29 (0.97–1.71). Moreover, at CYP3A4 [19] (listed as midazolam), the “AUC ratio Observation” value is listed as 2.22 and the “Cmax ratio Observation” value is listed as 1.29. The “AUC Observation” value at CYP3A4 [19] (midazolam AUC0–∞, midazolam 2 mg single oral dose with and without ipatasertib 600 mg QD, geometric mean (CV%)) is 39.3 (58.4%) ng* h/ml. In addition, the “Cmax Observation” value at CYP3A4 [19] (midazolam Cmax, midazolam 2 mg single oral dose with and without ipatasertib 600 mg QD, geometric mean (CV%)) is on record as 15.0 (51.6%) ng/ml. Further, the “Tmax Observation” value on CYP3A4 [19] (midazolam Tmax, midazolam 2 mg single oral dose with and without ipatasertib 600 mg QD, median (range)) was 0.50 (0.50–1.00) h.
`CC(=O)c1c(C)c2cnc(Nc3ccc(N4CCNCC4)cn3)nc2n(C2CCCC2)c1=O` [Palbociclib]: in series [20], the logP is on record as 0.99. Moreover, the “fu, plasma” value in [1] (palbociclib PBPK model input) was 0.147. Besides, the “Kapp (CYP3A4 time-dependent inhibition)” value in the series with CYP3A4 [2] (palbociclib PBPK model input) was 10 µM. In series [3] (palbociclib PBPK model input), the CLR is listed as 6.6 L/h, the Fa is on record as 0.85, the Ka was 0.12 h⁻¹ and the Vss was 14.558 L/kg. In addition, on CYP3A4 [21], the AUC worked out at 2560 ng·h/mL and the Cmax worked out at 123 ng/mL.
In the series “MDCK permeability”, `CN/C(=N/CCSCc1nc[nH]c1C)NC#N` [cimetidine] returned a Papp of 1 ×10⁻⁶ cm/s.
Turning to `COCCc1ccc(OCC(O)CNC(C)C)cc1` (stereo not drawn) [metoprolol], the Papp in the series “MDCK permeability” came out at 24.8 ×10⁻⁶ cm/s. This Papp lies about 25-fold higher than the previous one.
In turn, `CC(C)NCC(O)COc1cccc2ccccc12` (stereo not drawn) [propranolol] gave a Papp in the series “MDCK permeability” of 20.9 ×10⁻⁶ cm/s. This Papp and that of the compound before are within 1.5-fold of each other.
